Data taken from patent publication US10738041B2, “Ferroportin inhibitors” (Vifor (International) AG, priority 2015, dated 2020).
pEC50, pIC50: −log10 of the molar value.

Assays:
ferroportin (Fpn) = biological target: T1, ferroportin (Fpn) (Mus musculus, UniProt Q9JHI9); experiment: Hepcidin Internalization Assay (J774); format: cell-based; conditions: average of multiple measurements; inhibition of TMR-hepcidin (25 nM) internalization into J774 cells; read-out: J774 IC50
T1 construct: host or cells: J774 mouse macrophage cell line, Fe(III)-NTA induced
T1 sequence (Q9JHI9 1-570): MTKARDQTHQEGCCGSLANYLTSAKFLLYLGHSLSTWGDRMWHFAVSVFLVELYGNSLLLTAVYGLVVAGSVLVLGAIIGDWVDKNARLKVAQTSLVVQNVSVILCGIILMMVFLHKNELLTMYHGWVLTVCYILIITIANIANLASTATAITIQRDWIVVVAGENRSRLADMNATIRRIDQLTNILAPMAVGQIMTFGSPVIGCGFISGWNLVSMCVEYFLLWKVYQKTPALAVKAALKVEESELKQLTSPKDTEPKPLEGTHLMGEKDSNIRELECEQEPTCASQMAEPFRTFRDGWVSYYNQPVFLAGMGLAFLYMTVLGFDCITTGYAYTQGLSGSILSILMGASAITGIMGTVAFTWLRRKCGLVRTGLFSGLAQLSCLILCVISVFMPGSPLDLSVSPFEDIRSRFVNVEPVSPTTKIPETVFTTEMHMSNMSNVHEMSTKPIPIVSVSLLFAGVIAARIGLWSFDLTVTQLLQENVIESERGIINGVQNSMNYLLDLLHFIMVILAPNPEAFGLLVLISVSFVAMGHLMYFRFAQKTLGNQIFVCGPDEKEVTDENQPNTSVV
Outline: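 Inhibition of fluorescent TMR-hepcidin uptake via ferroportin was imaged in fixed J774 cells after a 2 h, 37 °C co-incubation with compound dilutions; cells were pre-cultured overnight with 200 μM Fe(III)NTA. Internalized TMR signal per cell (Sum(Mean)) was fitted as log(inhibitor) vs. response for IC50, in triplicate.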

human Fpn = biological target: T2, human Fpn (Homo sapiens, UniProt Q9NP59); experiment: Biophysical Ferroportin-Hepcidin Binding Assay (fluorescence polarization); conditions: average of multiple measurements; 1 μM human Fpn, 20 nM TMR-hepcidin; read-out: FP IC50
T2 construct: FLAG (C); made in house; host or cells: Pichia pastoris
T2 sequence (Q9NP59 1-571): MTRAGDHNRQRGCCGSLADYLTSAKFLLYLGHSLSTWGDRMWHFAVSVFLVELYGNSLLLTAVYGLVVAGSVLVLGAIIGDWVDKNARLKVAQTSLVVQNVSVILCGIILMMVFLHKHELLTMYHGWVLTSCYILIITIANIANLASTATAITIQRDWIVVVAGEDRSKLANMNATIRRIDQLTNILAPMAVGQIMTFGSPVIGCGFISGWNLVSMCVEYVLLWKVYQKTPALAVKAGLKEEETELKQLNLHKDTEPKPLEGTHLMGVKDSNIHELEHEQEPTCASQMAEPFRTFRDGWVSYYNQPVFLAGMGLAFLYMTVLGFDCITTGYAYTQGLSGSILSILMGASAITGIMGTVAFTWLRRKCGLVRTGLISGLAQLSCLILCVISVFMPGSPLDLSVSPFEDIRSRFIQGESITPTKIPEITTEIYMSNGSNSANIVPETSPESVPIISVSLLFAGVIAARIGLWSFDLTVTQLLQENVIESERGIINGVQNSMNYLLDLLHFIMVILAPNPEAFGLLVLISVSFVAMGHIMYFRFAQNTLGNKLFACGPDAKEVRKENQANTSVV
Method: This biophysical assay was developed to confirm inhibition of hepcidin binding to ferroportin (Fpn) more directly. Incubation of TMR-hepcidin with purified human Fpn isolated from Pichia pastoris yeast cells expressing human Fpn with a C-terminal FLAG affinity tag (Bonaccorsi di Patti, 2014) leads to increased fluorescence polarization (FP) of the TMR-hepcidin ligand. Small molecular weight Fpn inhibitors were tested for inhibition of binding of TMR-hepcidin to Fpn, as detected by dose-dependent decrease of the TMR FP signal, as described in detail below.
8 μl of serial dilutions of test compounds were added in duplicates to reach final Fpn and TMR-hepcidin concentrations of 1 μM and 20 nM, respectively. Plates were incubated for 90 minutes at room temperature and parallel (S) and perpendicular (P) fluorescence was measured in a Synergy H1 fluorescence reader (BioTek). FP values were calculated in mP according to the following formula.

human Fpn-GFP fusion = biological target: T3, human Fpn-GFP fusion (Homo sapiens, UniProt Q9NP59); experiment: Inhibition of ferroportin mediated iron export activity in an iron response assay (BLAzer); format: cell-based; conditions: average of multiple measurements; HEK-293 cell line #354; read-out: BLAzer EC50
T3 construct: expressed in transfected cells; host or cells: HEK-293 cell line #354 (derivative of HEK-293 Tet-ON Advanced, Clontech)
T3 sequence (Q9NP59 1-571): T2 sequence (Q9NP59 1-571)
Source text: Intracellular iron levels are indirectly measured in this assay by monitoring the activity of a beta-lactamase (BLA) reporter gene fused to the human ferritin promoter and the associated iron regulatory element (IRE) contained within the 5′ untranslated region of the ferritin mRNA. Expression of ferroportin (Fpn) in such a cell line leads to iron efflux and lower iron levels as reflected by lower activity of the reporter gene. On the other hand, inhibition of Fpn-mediated iron efflux results in elevated cellular iron levels which is detected as increased reporter gene activity. Small molecular weight Fpn inhibitor compounds were tested for dose-dependent effects in this in vitro iron response assay as described below.
The HEK-293 cell line #354 was generated by stable integration of (i) a human Fpn-GFP fusion construct inserted in a derivative of the doxycycline-inducible pTRE-Tight-BI plasmid (Clontech, Cat. 631068) and (ii) a human ferritin promoter-BLA reporter gene into a derivative of the HEK-293 Tet-ON Advanced cell line (Clontech). […] After overnight incubation, 10 μl/well of dilution series of the test compounds were added in quadruplicates and plates were further incubated overnight at 37° C. with 5% CQ. Cells were washed 3 times with HBSS leaving 25 μl per well. BLA activity was detected by adding 5 μl/well of the GeneBlazer reagent CCF4-AM (Invitrogen, Cat. K1085) to the cells. After incubation of the plates in the dark at 18° C. for 60 min., blue and green fluorescence signals were measured in a Safre2 fluorescence plate reader (Tecan) with excitation at 410 nm and emissions at 458 nm (blue) and 522 nm (green). The ratio of blue/green fluorescence as a measure for BLA activity was calculated and EC50 values were determined with the calculated blue/green fluorescence ratios as described for the hepcidin internalization assay.

Cn1ccnc1CNCCc1nc(C(=O)NCc2ccccc2)cs1 [Example 2]
pIC50 (ferroportin (Fpn)): 5.20
pIC50 (human Fpn): 4.98
pEC50 (human Fpn-GFP fusion): 5.79

O=C(NCC1CCCCC1)c1csc(CCNCc2nc3ccccc3[nH]2)n1 [Example 13]
pIC50 (ferroportin (Fpn)): 5.77
pIC50 (human Fpn): 6.28
pEC50 (human Fpn-GFP fusion): 4.57

O=C(c1csc(CCNCc2nc3ccccc3[nH]2)n1)N1CCc2ccccc2C1 [Example 15]
pIC50 (ferroportin (Fpn)): 5.80
pIC50 (human Fpn): 5.83
pEC50 (human Fpn-GFP fusion): 5.65

O=C(NCc1ccccc1)c1csc(CCNCc2cc3ccccc3[nH]2)n1 [Example 24]
pIC50 (ferroportin (Fpn)): 5.55
pEC50 (human Fpn-GFP fusion): 4.89

O=C(NCc1ccccc1)c1csc(CCNCCc2nc3ccccc3[nH]2)n1 [Example 29]
pIC50 (ferroportin (Fpn)): 6.29
pIC50 (human Fpn): 6.87
pEC50 (human Fpn-GFP fusion): 5.60

Cc1ccc2[nH]c(CNCCc3nc(C(=O)NCc4ccccc4)cs3)nc2c1 [Example 32]
pIC50 (ferroportin (Fpn)): 5.59
pIC50 (human Fpn): 5.92
pEC50 (human Fpn-GFP fusion): 5.73

O=C(NCc1ncccc1C(F)(F)F)c1csc(CCNCc2nc3ccccc3[nH]2)n1 [Example 37]
pIC50 (ferroportin (Fpn)): 6.09
pIC50 (human Fpn): 5.72
pEC50 (human Fpn-GFP fusion): 5.10

O=C(NC1CCCc2cccnc21)c1csc(CCNCc2nc3ccccc3[nH]2)n1 (stereo not drawn) [Example 38]
pIC50 (ferroportin (Fpn)): 7.52
pIC50 (human Fpn): 6.63
pEC50 (human Fpn-GFP fusion): 5.53

Cc1cccc(CNC(=O)c2csc(CCNCc3nc4ccccc4[nH]3)n2)n1 [Example 42]
pIC50 (ferroportin (Fpn)): 6.22
pIC50 (human Fpn): 5.66
pEC50 (human Fpn-GFP fusion): 4.44

O=C(NCc1ccc(F)cn1)c1csc(CCNCc2nc3ccccc3[nH]2)n1 [Example 43]
pIC50 (ferroportin (Fpn)): 6.60
pIC50 (human Fpn): 5.82
pEC50 (human Fpn-GFP fusion): 4.51

O=C(NCc1ccncn1)c1csc(CCNCc2nc3ccccc3[nH]2)n1 [Example 44]
pIC50 (ferroportin (Fpn)): 5.88
pIC50 (human Fpn): 5.27
pEC50 (human Fpn-GFP fusion): 4.74

O=C(NCc1cnccn1)c1csc(CCNCc2nc3ccccc3[nH]2)n1 [Example 46]
pIC50 (ferroportin (Fpn)): 6.23
pIC50 (human Fpn): 5.36
pEC50 (human Fpn-GFP fusion): 4.41

O=C(NCc1ccccc1)c1csc(CCNCc2nc3cc(C(F)(F)F)ccc3[nH]2)n1 [Example 51]
pIC50 (ferroportin (Fpn)): 6.44
pIC50 (human Fpn): 6.28
pEC50 (human Fpn-GFP fusion): 5.35

O=C(NCc1ccccc1)c1csc(CCNCc2nc3cc(Cl)ccc3[nH]2)n1 [Example 52]
pIC50 (ferroportin (Fpn)): 6.47
pIC50 (human Fpn): 5.87
pEC50 (human Fpn-GFP fusion): 5.68

N#Cc1ccc(CNC(=O)c2csc(CCNCc3nc4ccccc4[nH]3)n2)cn1 [Example 56]
pIC50 (ferroportin (Fpn)): 6.39
pIC50 (human Fpn): 6.25
pEC50 (human Fpn-GFP fusion): 4.98

Cc1cnc(CNC(=O)c2csc(CCNCc3nc4ccccc4[nH]3)n2)c(C)c1 [Example 57]
pIC50 (ferroportin (Fpn)): 7.00
pIC50 (human Fpn): 6.37
pEC50 (human Fpn-GFP fusion): 5.68

COc1cccnc1CNC(=O)c1csc(CCNCc2nc3ccccc3[nH]2)n1 [Example 59]
pIC50 (ferroportin (Fpn)): 7.30
pIC50 (human Fpn): 6.57
pEC50 (human Fpn-GFP fusion): 5.86

O=C(NCc1ncccn1)c1csc(CCNCc2nc3ccccc3[nH]2)n1 [Example 61]
pIC50 (ferroportin (Fpn)): 6.25
pIC50 (human Fpn): 5.77
pEC50 (human Fpn-GFP fusion): 4.43

Cn1ccnc1CNC(=O)c1csc(CCNCc2nc3ccccc3[nH]2)n1 [Example 64]
pIC50 (ferroportin (Fpn)): 6.89
pIC50 (human Fpn): 5.91
pEC50 (human Fpn-GFP fusion): 5.34

O=C(NCc1ccccc1F)c1csc(CCNCc2nc3ccccc3[nH]2)n1 [Example 65]
pIC50 (ferroportin (Fpn)): 6.07
pIC50 (human Fpn): 6.02
pEC50 (human Fpn-GFP fusion): 4.49

O=C(NCc1ccccc1)c1cccc(CCNCc2nc3ccccc3[nH]2)c1 [Example 67]
pIC50 (ferroportin (Fpn)): 6.28
pIC50 (human Fpn): 5.47
pEC50 (human Fpn-GFP fusion): 4.48

CN1CCN(c2ccccc2CNC(=O)c2csc(CCNCc3nc4ccccc4[nH]3)n2)CC1 [Example 68]
pIC50 (ferroportin (Fpn)): 5.60
pIC50 (human Fpn): 5.39
pEC50 (human Fpn-GFP fusion): 4.98

N#Cc1ccccc1CNC(=O)c1csc(CCNCc2nc3ccccc3[nH]2)n1 [Example 71]
pIC50 (ferroportin (Fpn)): 6.62
pIC50 (human Fpn): 6.29
pEC50 (human Fpn-GFP fusion): 5.75

O=C(NCc1ccccc1S(=O)(=O)N1CCOCC1)c1csc(CCNCc2nc3ccccc3[nH]2)n1 [Example 75]
pIC50 (ferroportin (Fpn)): 6.28
pIC50 (human Fpn): 5.74
pEC50 (human Fpn-GFP fusion): 5.22

Cc1ccc(F)c(CNC(=O)c2csc(CCNCc3nc4ccccc4[nH]3)n2)n1 [Example 79]
pIC50 (ferroportin (Fpn)): 7.43
pIC50 (human Fpn): 6.09
pEC50 (human Fpn-GFP fusion): 6.08

Cn1cncc1CNC(=O)c1csc(CCNCc2nc3ccccc3[nH]2)n1 [Example 84]
pIC50 (ferroportin (Fpn)): 6.40
pIC50 (human Fpn): 5.62
pEC50 (human Fpn-GFP fusion): 4.88

O=C(NCc1ncco1)c1csc(CCNCc2nc3ccccc3[nH]2)n1 [Example 85]
pIC50 (ferroportin (Fpn)): 7.54
pIC50 (human Fpn): 5.73
pEC50 (human Fpn-GFP fusion): 4.73

Cn1ccc(CNC(=O)c2csc(CCNCc3nc4ccccc4[nH]3)n2)n1 [Example 86]
pIC50 (ferroportin (Fpn)): 6.32
pIC50 (human Fpn): 5.30
pEC50 (human Fpn-GFP fusion): 4.65

O=C(NCc1cccnn1)c1csc(CCNCc2nc3ccccc3[nH]2)n1 [Example 87]
pIC50 (ferroportin (Fpn)): 6.72
pIC50 (human Fpn): 5.65
pEC50 (human Fpn-GFP fusion): 4.78

Cn1nccc1CNC(=O)c1csc(CCNCc2nc3ccccc3[nH]2)n1 [Example 88]
pIC50 (ferroportin (Fpn)): 6.11
pIC50 (human Fpn): 5.17
pEC50 (human Fpn-GFP fusion): 4.88

O=C(NCc1ccncc1F)c1csc(CCNCc2nc3ccccc3[nH]2)n1 [Example 89]
pIC50 (ferroportin (Fpn)): 7.05
pIC50 (human Fpn): 6.04
pEC50 (human Fpn-GFP fusion): 5.30

Cc1ccc(CNC(=O)c2csc(CCNCc3nc4ccccc4[nH]3)n2)nn1 [Example 93]
pIC50 (ferroportin (Fpn)): 6.28
pIC50 (human Fpn): 5.99
pEC50 (human Fpn-GFP fusion): 4.69

Cc1ccc(CNC(=O)c2csc(CCNCc3nc4ccccc4[nH]3)n2)nc1 [Example 97]
pIC50 (ferroportin (Fpn)): 6.57
pIC50 (human Fpn): 5.67
pEC50 (human Fpn-GFP fusion): 5.74

Cc1cc(CNC(=O)c2csc(CCNCc3nc4ccccc4[nH]3)n2)ccn1 [Example 99]
pIC50 (ferroportin (Fpn)): 5.52
pIC50 (human Fpn): 5.36
pEC50 (human Fpn-GFP fusion): 4.64

Cc1c(CNC(=O)c2csc(CCNCc3nc4ccccc4[nH]3)n2)cnn1C [Example 100]
pIC50 (ferroportin (Fpn)): 6.34
pIC50 (human Fpn): 5.85
pEC50 (human Fpn-GFP fusion): 5.18

N#Cc1ccc2[nH]c(CCNCCc3nc(C(=O)NCc4ncccc4F)co3)nc2c1 [Example 265]
pIC50 (ferroportin (Fpn)): 7.15
pEC50 (human Fpn-GFP fusion): 5.70

O=C(NCc1ncccc1F)c1cncc(CCNCCc2nc3ccccc3[nH]2)c1 [compound 229]
pIC50 (human Fpn): 7.37
pEC50 (human Fpn-GFP fusion): 5.39
